Reference: patent US20150051138A1, “INHIBITORS OF FURIN AND OTHER PRO-PROTEIN CONVERTASES” (Sanford-Burnham Medical Research Institute, priority 2012, published 2015)

Key:
Furin = molecular target: T1, Furin (Homo sapiens, UniProt P09958); experiment: Furin enzymatic assay, IC50 determination with Pyr-RTKR-AMC substrate; type: biochemical; conditions: furin 50 nM, Pyr-RTKR-AMC 25 μM, 30 min preincubation; read-out: IC50 against Furin
T1 construct: Purification of Soluble Furin; inferred from purification by Ni2+-chelating chromatography and imidazole elution; made in house; host or cells: MDCK cells (furin-overexpressing), secreted into culture medium
T1 sequence (P09958 108-715 limits assumed): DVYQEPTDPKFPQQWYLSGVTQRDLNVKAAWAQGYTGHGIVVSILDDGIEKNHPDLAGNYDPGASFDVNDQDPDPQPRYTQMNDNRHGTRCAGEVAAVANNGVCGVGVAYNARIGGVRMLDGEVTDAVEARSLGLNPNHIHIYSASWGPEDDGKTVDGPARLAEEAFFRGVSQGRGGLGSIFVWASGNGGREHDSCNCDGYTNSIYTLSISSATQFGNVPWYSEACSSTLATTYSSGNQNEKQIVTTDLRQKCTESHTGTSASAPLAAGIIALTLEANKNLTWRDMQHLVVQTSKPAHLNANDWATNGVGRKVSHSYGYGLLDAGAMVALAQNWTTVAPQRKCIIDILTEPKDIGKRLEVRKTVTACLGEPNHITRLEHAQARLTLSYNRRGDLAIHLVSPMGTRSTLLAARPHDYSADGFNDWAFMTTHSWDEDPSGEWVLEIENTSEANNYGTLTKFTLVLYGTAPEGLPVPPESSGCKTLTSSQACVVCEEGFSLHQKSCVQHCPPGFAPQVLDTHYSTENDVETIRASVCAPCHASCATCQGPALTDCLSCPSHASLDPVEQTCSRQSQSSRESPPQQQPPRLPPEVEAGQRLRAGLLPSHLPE
Experimental: Furin-overexpressing MDCK cells were grown using 15 cm plates (Falcon) in DMEM/High modified synthetic media (Thermo Scientific) supplemented with Gentamicin (10 μg/ml). Each two days the medium was collected. Cells were replenished with fresh medium. To remove cell debris, the collected samples were spun at 3000×g and the supernatant fraction was filtered through a 0.22 μm filter (Corning) and then 100-fold concentrated using a Pellicon XL Biomax 10 concentrator (Millipore). Furin was isolated from the concentrated medium samples using Ni^2+-chelating chromatography on a HiTrap Chelating HP 1.6×2.5 cm column (Amersham Biosciences) equilibrated with 20 mM Tris-HCl buffer, pH 8.0, containing 1M NaCl. To remove the impurities, the column was washed with 50 ml of the same buffer containing 25 mM imidazole. Furin was eluted using 500 mM imidazole. The purified fractions were pooled, concentrated using an Amicon Ultra 50K-cutoff membrane (Millipore), dialyzed against PBS and stored at −80° C. According to SDS-PAGE followed by Coomassie staining of the gel, Western blotting and enzyme activity assays the purity of the isolated furin samples was >95%. The typical yield of purified furin was 0.8-1 mg/liter of cell culture medium. Specific activity of purified furin was >120 units where one unit is the amount of furin that will cleave 1.0 pmol methyl-coumaryl-7-amide (AMC) from the Pyr-Arg-Thr-Lys-Arg-methyl-coumaryl-7-amide (Pyr-RTKR-AMC) substrate per min at ambient temperature, pH 7.5.
Furin activity was measured in triplicate in wells of a 96-well plate in 0.2 ml 50 mM HEPES, pH 7.5, containing 1 mM CaCl2, 0.005% Brij-35 and 20% glycerol. Pyr-RTKR-AMC (25 μM) was used as a substrate. The concentration of furin in the reactions was 50 nM. The steady-state rate of substrate hydrolysis was monitored continuously (λex=360 nm and λem=465 nm) at 37° C. using a Spectramax Gemini EM fluorescent spectrophotometer (Molecular Devices).
Furin (50 nM) was preincubated for 30 min at 20° C. with increasing concentrations of the individual compounds in 0.1 ml of 50 mM HEPES, pH 7.5, containing 1 mM CaCl2, 20% glycerol and 0.005% Brij 35. The Pyr-RTKR-AMC substrate ([…]) was added in 0.1 ml of the same buffer. Reaction velocity was monitored continuously at λex=360 nm and λem=465 nm on a Spectramax Gemini EM fluorescence spectrophotometer. All assays were performed in triplicate in wells of a 96-well plate. IC50 values were calculated by determining the concentrations of the compounds needed to inhibit 50% of the furin activity against Pyr-RTKR-AMC substrate. GraphPad Prism was used as fitting software.

Dengue = Dengue viral replication assay, secondary CPE/virus yield reduction (VYR); type: cell-based; conditions: read-out: cellular activity against Dengue (EC90)
Experimental: Primary cytopathic effect (CPE) reduction assay. Four-concentration CPE inhibition assays are performed. Confluent or near-confluent cell culture monolayers in 96-well disposable microplates are prepared. Cells are maintained in MEM or DMEM supplemented with FBS as required for each cell line. For antiviral assays the same medium is used but with FBS reduced to 2% or less and supplemented with 50 μg/ml gentamicin. The test compound is prepared at four log 10 final concentrations, usually 0.1, 1.0, 10, and 100 μg/ml or μM. The virus control and cell control wells are on every microplate. In parallel, a known active drug is tested as a positive control drug using the same method as is applied for test compounds. The positive control is tested with each test run. The assay is set up by first removing growth media from the 96-well plates of cells. Then the test compound is applied in 0.1 ml volume to wells at 2× concentration. […] The dye content in each well is quantified using a 96-well spectrophotometer at 540 nm wavelength. […]
Secondary CPE/Virus yield reduction (VYR) assay. […] The incorporated dye content is quantified as described above. […] Compounds observed to be active above are further evaluated by VYR assay. […] Wells are scored for presence or absence of virus after distinct CPE (measured by neutral red uptake) is observed. […]

IC50 (Furin) [nM] | Structure (SMILES) | EC90 (Dengue) [nM]
3.7 | CC(=O)N[C@@H](CCCNC(=N)N)C(=O)N[C@H](C(=O)N[C@@H](Cc1ccc(N=C(N)N)cc1)C(=O)NCc1ccc(C(=N)N)c(F)c1)C(C)C [Compound B] | –
9 | CC(=O)N[C@@H](CCCNC(=N)N)C(=O)N[C@H](C(=O)N[C@@H](Cc1ccc(N=C(N)N)cc1)C(=O)NCc1ccc(C(=N)N)cc1F)C(C)C [Compound C] | –

Continued, compound first:

Structure (SMILES) | IC50 (Furin) [nM] | EC90 (Dengue) [nM]
CC(=O)N[C@@H](CCCNC(=N)N)C(=O)N[C@H](C(=O)N[C@@H](Cc1ccc(N=C(N)N)cc1)C(=O)NCc1ccc(C(=N)N)cc1)C(C)C [Compound A] | 7 | 14000
CC(=O)N[C@@H](CCCNC(=N)N)C(=O)N[C@H](C(=O)N[C@@H](Cc1ccc(N=C(N)N)cc1)C(=O)NCc1ccc(/C(N)=N/O)cc1)C(C)C [Compound D] | 1200 | –
CC(C)[C@H](NS(=O)(=O)Cc1ccc(C(=N)N)cc1)C(=O)N[C@@H](CCCNC(=N)N)C(=O)NCc1ccc(C(=N)N)cc1 [Compound E] | 300 | –
